Measurements taken from patent US5753483A (priority 1995, dated 1998).
“Also recorded” adds a separate entry of the source. Like-named read-outs stand apart in the source and are kept apart here.

Assays:
[1] = biological target: T1, UDP-GlcNAc pyrophosphorylase (Sus scrofa, UniProt F1S210); assay: Photoaffinity labeling of purified pyrophosphorylase and its inhibition (FIG. 5); assay type: binding, pig; details: for labeling of enzyme subunits by probe: UV light, SDS-PAGE
T1 construct: both 64 and 55 kDa bands photolabelled
T1 sequence (F1S210 1-505): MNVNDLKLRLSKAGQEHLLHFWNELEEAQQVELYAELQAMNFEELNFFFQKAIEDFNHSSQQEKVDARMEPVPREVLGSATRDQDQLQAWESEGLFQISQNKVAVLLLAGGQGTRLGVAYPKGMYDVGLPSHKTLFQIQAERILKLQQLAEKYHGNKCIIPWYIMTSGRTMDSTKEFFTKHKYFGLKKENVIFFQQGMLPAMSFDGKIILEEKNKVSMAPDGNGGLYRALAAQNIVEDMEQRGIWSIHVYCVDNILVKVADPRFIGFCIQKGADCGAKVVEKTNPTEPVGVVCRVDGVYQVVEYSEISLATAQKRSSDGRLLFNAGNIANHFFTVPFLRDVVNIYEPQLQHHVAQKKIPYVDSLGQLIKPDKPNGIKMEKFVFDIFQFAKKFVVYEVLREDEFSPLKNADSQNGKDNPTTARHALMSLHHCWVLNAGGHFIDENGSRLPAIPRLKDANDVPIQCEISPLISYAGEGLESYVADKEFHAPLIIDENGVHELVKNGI
Experimental: Enzyme was incubated with radioactive probe in the presence or absence of various inhibitors, and some of the incubations were exposed to UV light to activate the probe. Each incubation was treated with trichloroacetic acid to precipitate the protein, and the pellet was resuspended in SDS and subjected to SDS-PAGE. Radioactive proteins were detected by exposure to film. […]

Pyrophosphorylase [2] = biological target: T2, Pyrophosphorylase (Sus scrofa, UniProt F1S210); assay: Putative inhibitors of pyrophosphorylase; assay type: biochemical, pig; details: for inhibition at 100 µM: 0.1 mM; for inhibition at 1000 µM: 1.0 mM
T2 construct: 64 and 55 kDa bands; native about 125 kDa
T2 sequence (F1S210 1-505): as above
Experimental: A variety of other inhibitors were tested, including various sulfhydryl reagents and metal chelators.

[3] = test system: UDP-GlcNAc pyrophosphorylase; assay: Kinetic constants, forward direction (sugar-1-P + UTP); assay type: biochemical, pig
Experimental: (§1) After an incubation of 10 minutes at 37° C., the reaction was terminated by heating the tubes in a boiling water bath for 30 seconds. The amount of product could either be determined by measuring the amount of radioactivity that bound to DE-52 (HCO3 -) after treatment of the reaction mixtures with alkaline phosphatase, or the product could be detected by TLC.

Pyrophosphorylase [4] = biological target: T2, Pyrophosphorylase; assay: Specificity of pyrophosphorylase (reverse direction); assay type: biochemical, pig; details: 5 mM, PP = 1 mM; for Relative Activity: UDP-GalNAc = 100
Experimental: (§2) When measured in the reverse direction, either a direct assay or an indirect assay could be used. […] The incubation mixtures contained the following components in a final volume of 50 μl: 5 mM sodium pyrophosphate, 250 uM UDP-[^3 H]GlcNAc (2.2 Ci/mmol), 100 mM Tris HCl buffer, pH 8.5, 2 mM MgCl2, and various amounts of enzyme at the different stages of purification. […] The suspension was vortexed vigorously for 2 minutes, and was then centrifuged in a microfuge. The supernatant liquid was removed and saved, and the charcoal was washed with 1 ml of water. The supernatant liquid from this wash was combined with the first supernatant liquid, and an aliquot was removed and counted, as a measure of the formation of GlcNAc-1-P.
(§3) For the indirect assay, a modification of the spectrophotometric method of Munch-Petersen, (1956) Acta Chim. Scand. […] The assay mixtures contained 50 mM Tris-HCl buffer, pH 7.5, 1 mM MgCl2, 0.5 mM ADP, 1 mM glucose, 0.5 mM NADP, 1 mM inorganic pyrophosphate, 2 mM UDP-HexNAc and 2.5 units each of nucleoside diphosphate kinase, hexokinase and glucose-6-P dehydrogenase.
(§4) The substrate specificity of the purified enzyme was examined in both the forward and the reverse direction.

Pyrophosphorylase [5] = biological target: T2, Pyrophosphorylase; assay: Specificity of pyrophosphorylase (forward direction); assay type: biochemical, pig; details: for Activity / Relative Activity: sugar phosphate 5 mM, UT = 5 mM; for Relative Activity: GalNAc-1-P = 100
Experimental: as §1, §4

[6] = test system: UDP-GlcNAc pyrophosphorylase; details: [^3 H]UTP + GlcNAc-1-P, 2 hours
Experimental: The reaction products, formed in either the forward direction (i.e., uridine diphosphate sugars), or in the reverse direction (i.e., UTP and sugar-i-P's), were isolated by chromatography on a 1×20
column of DEAE-cellulose (HCO3 -), equilibrated in 10 mM NH4 HCO3. After application of the sample, the column was washed with the same solution and the retained products were eluted with 200 ml of a linear 10 to 300 mM gradient of NH4 HCO3. Fractions were analyzed for nucleotides by measuring the absorption at 260 nm, for radioactivity by scintillation counting, and for hexosamine by the Reissig test (J. Biol. Chem., 217, 959-966, 1955) or the or the Elson Morgan assay (Wheat, R. W. (1966) Meth. Enzymol. 8, 60-78). Peak fractions were pooled and concentrated on a rotary evaporator and NH4 H CO3 was removed by evaporation in the presence of triethylamine. The triethylamine was in turn removed by evaporation in the presence of methanol.
The reaction products were identified by chromatography, either directly, or following various treatments such as digestion with phosphodiesterase or alkaline phosphatase, or acid hydrolysis. Nucleotides were identified by TLC in the following systems: PEI plates developed in 0.2M and 0.4M solutions of LiCl; cellulose plates in ethanol: 1M ammonium acetate, pH 7.3 (7:3), or silica gel plates in ethanol: 1M ammonium acetate, pH 5.0 (7:3). N-acetyl-hexosamines were released from nucleotides by mild acid hydrolysis (0.01 N HCl, 100° C., 15 minutes) and identified by chromatography on borate-treated paper in n-butanol:pyridine:water (6:4:3) as described earlier by Cardini and Leloir, (1953) Arch. Biochem. Biophys., 45, 317-324.
After deproteinization, the aqueous phase was applied to a column of DE-52 and sugar phosphates and nucleoside diphosphate sugars were separated with a gradient of NH4 HCO3, as shown in FIG. 4. […] The peak was pooled and subjected to TLC in 3 different solvent systems as described above.
The characterization of these products was also based on the products produced by phosphosdiesterase, mild acid hydrolysis and other treatments.

[7] = test system: UDP-GlcNAc pyrophosphorylase; details: reverse direction
Experimental: as §2, §3

sheep brain enzyme = details: cited from earlier work
Pyrophosphorylase [8] = biological target: T2, Pyrophosphorylase; assay: Effects of metal ions on pyrophosphorylase activity; assay type: biochemical, pig; details: metal ion 1 mM
Source text: Other ions such as Fe^+++, Ca^++ and Hg^++ were ineffective.

[9] = test system: UDP-GlcNAc pyrophosphorylase from brain; details: cited from earlier work
[10] = metal chelators, as long as sufficient Mn++ was added
[11] = at 1 mM inorganic pyrophosphate
[12] = at 1 mM UTP, read-out: apparant Km

Nc1nc2c(ncn2[C@@H]2O[C@H](COP(=O)(O)OP(=O)(O)OP(=O)(O)O)[C@@H](O)[C@H]2O)c(=O)[nH]1 [GTP]
inhibition of labeling ([1]; nucleotides): very little inhibition of labeling

c1cnc2c(c1)ccc1cccnc12 [O-Phenanthroline, 1, 10-phenanthroline]
inhibition at 100 µM (Pyrophosphorylase [2]; read-out: Inhibition): 5% | inhibition at 1000 µM (Pyrophosphorylase [2]; read-out: Inhibition): 16% | inhibition (in words) (Pyrophosphorylase [2]; [10]): did not inhibit

CCN1C(=O)C=CC1=O [N-ethylmaleimide]
inhibition at 10 µM (Pyrophosphorylase [2]; 0.01 mM): 3% | inhibition at 100 µM (Pyrophosphorylase [2]): 46% | inhibition at 1000 µM (Pyrophosphorylase [2]): 72%

Nc1nc2c(ncn2[C@@H]2O[C@H](COP(=O)(O)OP(=O)(O)O)[C@@H](O)[C@H]2O)c(=O)[nH]1 [GDP]
inhibition of labeling ([1]; nucleotides): very little inhibition of labeling

O=c1ccn([C@@H]2O[C@H](COP(=O)(O)OP(=O)(O)OP(=O)(O)O)[C@@H](O)[C@H]2O)c(=O)[nH]1 [UTP]
inhibition of labeling ([1]; nucleotides): very little inhibition of labeling | Vmax ([3]; UTP as substrate, at 10 mM GlcNAc-1-P): 4.8 nmol/min | Km ([3]; UTP as substrate, at 10 mM GlcNAc-1-P, read-out: Km): 2500 µM

Nc1ncnc2c1ncn2[C@@H]1O[C@H](COP(=O)(O)OP(=O)(O)OP(=O)(O)O)[C@@H](O)[C@H]1O [ATP]
inhibition of labeling ([1]; nucleotides): very little inhibition of labeling

Nc1ncnc2c1ncn2[C@@H]1O[C@H](COP(=O)(O)OP(=O)(O)O[C@H]2O[C@H](CO)[C@@H](O)[C@H](O)[C@H]2O)[C@@H](O)[C@H]1O [ADP-Glc]
Activity (Pyrophosphorylase [4]): 0.6 nmol/min | Relative Activity (Pyrophosphorylase [4]): 3%

N[C@H]1[C@@H](OP(=O)(O)O)O[C@H](CO)[C@@H](O)[C@@H]1O [GlcN-1-P]
Activity (Pyrophosphorylase [5]): 0.10 nmol/min | Relative Activity (Pyrophosphorylase [5]): 2%

CC(=O)NC1C(OP(=O)(O)OP(=O)(O)OCC2OC(n3ccc(=O)[nH]c3=O)C(O)C2O)OC(CO)C(O)C1O (stereo not shown) [UDP-GlcNAc, UDP-N-acetylglucosamine]
amount in UDP-GlcNAc area [6]: 7.9 µmol | radioactivity in UDP-GlcNAc area, share of total [6]: 79% | inhibition of labeling ([1]; unlabeled UDP-GlcNAc 0.01 mM to 1 mM): labeling was efficiently blocked; also recorded: effectively inhibited the labeling of both subunits to about the same extent; also recorded: labeling is blocked | Km [7, 11]: 50 µM | Vmax [7, 11]: 22.2 nmol/min | Activity (Pyrophosphorylase [4]): 13.0 nmol/min | Relative Activity (Pyrophosphorylase [4]): 66% | activity as substrate (in words) (sheep brain enzyme): most active

O[C@H](CS)[C@H](O)CS (racemic) [Dithiothreitol]
inhibition at 100 µM (Pyrophosphorylase [2]; read-out: Inhibition): 21% | inhibition at 1000 µM (Pyrophosphorylase [2]; read-out: Inhibition): 62%

CC(=O)N[C@H]1[C@@H](OP(=O)(O)O)O[C@H](CO)[C@H](O)[C@@H]1O [GalNAc-1-P]
substrate preference, forward direction (Pyrophosphorylase [5]): GalNAc-1-P over GlcNAc-1-P; also recorded: prefers GalNAc-1-P slightly over GlcNAc-1-P | Activity (Pyrophosphorylase [5]): 5.28 nmol/min | Relative Activity (Pyrophosphorylase [5]): 100% | Vmax ([3]; at 1 mM UTP): 7.1 nmol/min | Km [3, 12]: 5500 µM

O=P(O)(O)OP(=O)(O)O [inorganic pyrophosphate]
Km ([7]; at 1 mM UDP-GlcNAc): 70 µM | Vmax ([7]; at 1 mM UDP-GlcNAc): 20 nmol/min

[Mn+2] [Mn++, manganese]
Activity (Pyrophosphorylase [8]): 4.89 nmol | Activity (Pyrophosphorylase [8]; Mn++ = 100): 100% | effectiveness as cation [9]: then Mn^++

O=c1ccn([C@@H]2O[C@H](COP(=O)(O)OP(=O)(O)O[C@H]3OC[C@@H](O)[C@H](O)[C@H]3O)[C@@H](O)[C@H]2O)c(=O)[nH]1 [UDP-xylose]
inhibition of labeling ([1]; even at 1 mM): None of these sugar nucleotides showed any inhibition of the labeling

O=C(O)[C@H]1O[C@H](OP(=O)(O)OP(=O)(O)OC[C@H]2O[C@@H](n3ccc(=O)[nH]c3=O)[C@H](O)[C@@H]2O)[C@H](O)[C@@H](O)[C@H]1O [UDP-GalCOOH]
Activity (Pyrophosphorylase [4]): 1.3 nmol/min | Relative Activity (Pyrophosphorylase [4]): 7%

O=C(O)[C@H]1O[C@H](OP(=O)(O)OP(=O)(O)OC[C@H]2O[C@@H](n3ccc(=O)[nH]c3=O)[C@H](O)[C@@H]2O)[C@H](O)[C@@H](O)[C@@H]1O [UDP-GlcCOOH, UDP-glucuronic acid]
inhibition of labeling ([1]; even at 1 mM): None of these sugar nucleotides showed any inhibition of the labeling | Activity (Pyrophosphorylase [4]): 1.4 nmol/min | Relative Activity (Pyrophosphorylase [4]): 7%

O=C(O)CN(CCOCCOCCN(CC(=O)O)CC(=O)O)CC(=O)O [EGTA]
inhibition at 100 µM (Pyrophosphorylase [2]; read-out: Inhibition): 8% | inhibition at 1000 µM (Pyrophosphorylase [2]; read-out: Inhibition): 13% | inhibition (in words) (Pyrophosphorylase [2]; [10]): did not inhibit

CC(=O)N[C@H]1[C@@H](OP(=O)(O)O)O[C@H](CO)[C@@H](O)[C@@H]1O [GlcNAc-1-P]
Activity (Pyrophosphorylase [5]): 4.83 nmol/min | Relative Activity (Pyrophosphorylase [5]): 91% | Vmax ([3]; at 1 mM UTP): 3.1 nmol/min | Km [3, 12]: 2000 µM

NC(=O)CI [Iodoacetamide]
inhibition at 1000 µM (Pyrophosphorylase [2]): 44%

5-azido-salicylic-[^125 I]-allylamine-UDP-GlcNAc [5-azido-ASA-UDP-GlcNAc]
labeling of GlcNAc transferases by probe (GlcNAc transferases): does label the pyrophosphorylase and some GlcNAc transferases | labeling of enzyme subunits by probe [1]: both the 64 kDa and the 55 kDa subunits of the enzyme became labeled with the probe | labeling of enzyme subunits by probe ([1]; listed as [^125 I]-N3 -salicyclic acid-allylamine-UDP-GlcNAc): Both subunits became labeled by this probe and labeling was saturable with increasing concentrations of probe | labeling of enzyme subunits by probe ([1]; listed as azido-[^125 I]-salicyclic acid-allylamine-UDP-GlcNAc): they both become labeled

O=P(O)(O)O[C@H]1O[C@H](CO)[C@@H](O)[C@H](O)[C@H]1O [Glc-1-P, glucose-1-P]
substrate preference, forward direction (Pyrophosphorylase [5]): may act as substrates but to a much lower degree | Activity (Pyrophosphorylase [5]): 0.20 nmol/min | Relative Activity (Pyrophosphorylase [5]): 4% | Vmax ([3]; at 1 mM UTP): 1.7 nmol/min | Km [3, 12]: 66600 µM

O=c1ccn([C@@H]2O[C@H](COP(=O)(O)OP(=O)(O)O)[C@@H](O)[C@H]2O)c(=O)[nH]1 [UDP]
inhibition of labeling ([1]; nucleotides): very little inhibition of labeling

O=C(O)CN(CCN(CC(=O)O)CC(=O)O)CC(=O)O [EDTA]
inhibition at 100 µM (Pyrophosphorylase [2]): 5% | inhibition at 1000 µM (Pyrophosphorylase [2]): 13% | inhibition (in words) (Pyrophosphorylase [2]; [10]): did not inhibit

O=P(O)(O)O [inorganic phosphate]
inhibition (in words) (Pyrophosphorylase [2]; even at 10 mM): nor did inorganic phosphate

N[C@H]1C(OP(=O)(O)O)O[C@H](CO)[C@H](O)[C@@H]1O (stereo partly shown) [GalN-1-P]
Activity (Pyrophosphorylase [5]): 0 nmol/min

O=c1ccn([C@@H]2O[C@H](COP(=O)(O)O)[C@@H](O)[C@H]2O)c(=O)[nH]1 [UMP]
inhibition of labeling ([1]; nucleotides): a small effect

Nc1nc2c(ncn2[C@@H]2O[C@H](COP(=O)(O)OP(=O)(O)O[C@H]3O[C@H](CO)[C@@H](O)[C@H](O)[C@@H]3O)[C@@H](O)[C@H]2O)c(=O)[nH]1 [GDP-mannose]
inhibition of labeling ([1]; even at 1 mM): None of these sugar nucleotides showed any inhibition of the labeling

O=P(O)(O)O[C@H]1O[C@H](CO)[C@H](O)[C@H](O)[C@H]1O [Gal-1-P]
substrate preference, forward direction (Pyrophosphorylase [5]): may act as substrates but to a much lower degree | Activity (Pyrophosphorylase [5]): 0.14 nmol/min | Relative Activity (Pyrophosphorylase [5]): 3%
